These results are taken from patent US20140113898A1, “BISARYLSULFONE AND DIALKYLARYLSULFONE COMPOUNDS AS CALCIUM CHANNEL BLOCKERS” (Zalicus Pharmaceuticals Ltd., priority 2010, published 2014).

Like-named read-outs stand apart in the source and are kept apart here.

Common to all, as to type: cell-based
In one test the target is T1, CaV3.2 (Homo sapiens, UniProt O95180).
T1 construct: expressed in transfected cells; host or cells: unnamed doxycycline-inducible cell line
The test is described as follows: High-throughput CaV3.2/Kir2.3 T-type FLIPR fluorescent assay. To be noted: Fluo-4 FLIPR, closed or inactivated state not stated. Here is the method: Cells were plated in 384-well, clear-bottom, black-walled, poly-D-lysine coated plates (Becton Dickinson, Franklin Lake, N.J.) 2 days prior to use in the FLIPR assay. 100 µL of cells (1.2×10^6 cell/mL) containing doxycyline (Sigma-Aldrich, 1.5 μg/mL; to induce channel expression) were added to each well using a Multidrop (Thermo Scientific, Waltham, Mass.) and were maintained in 5% CO2 incubator at 37° C. On the morning of the assay, cells were transferred to a 5% CO2 incubator at 29° C.
Cells were washed with a wash buffer containing (in mM): 118 NaCl, 18.4 HEPES, 11.7 D-glucose, 2 CaCl2, 0.5 MgSO4, 4.7 KCl, and 1.2 KH2PO4, with the pH adjusted to 7.2 with
NaOH. 4.4 μM of the fluorescent indicator dye Fluo-4 (Invitrogen) prepared in pluronic acid (Sigma-Aldrich) was loaded into the wells and incubated for 45 minutes at 29° C. in 5% CO2. Cells were then rinsed with either a 2 mM KCl closed-state buffer (in mM: 138.5 NaCl, 10 HEPES, 10 D-glucose, 1 CaCl2, and 2 KCl, with the pH adjusted to 7.4 with NaOH) when performing the closed-state assay or 7.6 mM KCl inactivated-state buffer (in mM: 130.9 NaCl, 10 HEPES, 10 D-glucose, 1 CaCl2, and 7.6 mM KCl, with the pH adjusted to 7.4 with NaOH) when performing the inactivated-state assay. Concentration-dependent response curves were generated from 5 mM stock solutions prepared in DMSO (Sigma-Aldrich), diluted in either the 2 mM KCl buffer or 7.6 mM KCl buffer, and incubated for 20 minutes at 29° C. in 5% CO2. Calcium entry was evoked with an addition of either 12 mM KCl stimulation buffer (in mM: 128.5 NaCl, 10 HEPES, 10 D-glucose, 1 CaCl2, and 12 KCl, with the pH adjusted to 7.4 with NaOH) or 14.5 mM KCl stimulation buffer (in mM: 126 NaCl, 10 HEPES, 10 D-glucose, 1 CaCl2, and 14.5 KCl, with the pH adjusted to 7.4 with NaOH) for the closed-state or inactivated-state assay respectively. A change in the Fluo-4 fluorescence signal was assessed using FLIPR^TETRA™ instrument (Molecular Devices, Sunnyvale, Calif.) for 3 minutes following the elevation of extracellular KCl using an illumination wavelength of 470-495 nm with emissions recorded at 515-575 nm.
(§1) Concentration-dependent response curves were obtained by comparing the fluorescence signal in the presence of compound and fitted with a logistic function (1) to obtain the concentration that inhibited 50% (IC50) of the RLU signal using OriginPro v.7.5 software (OriginLab, Northampton, Mass.).
(§2) To assess the quality of the FLIPR assays the Z-factor (2) was used to quantify the suitability of the assay conditions using the following equation: […]
(§3) Data are expressed as mean and standard deviation (SD).

In another test the target is T2, CaV3.1 (Homo sapiens, UniProt O43497).
T2 construct: expressed in transfected cells; host or cells: unnamed doxycycline-inducible cell line
The experiment in a line: High-throughput CaV3.1 T-type FLIPR fluorescent assay. To be noted: Fluo-4 FLIPR. The procedure:
Cells were plated in 384-well, clear-bottom, black-walled, poly-D-lysine coated plates (Becton Dickinson, Franklin Lake, N.J.) 2 days prior to use in the FLIPR assay. 100 μL of cells (2.0×10^6 cell/mL) containing doxycyline (Sigma-Aldrich, 1.5 μg/mL; to induce channel expression) were added to each well using a Multidrop (Thermo Scientific, Waltham, Mass.) and were maintained in 5% CO2 incubator at 37° C. On the morning of the assay, cells were transferred to a 5% CO2 incubator at 29° C.
Cells were washed with a wash buffer containing (in mM): 118 NaCl, 18.4 HEPES, 11.7 D-glucose, 0.05 CaCl2, 0.5 MgSO4, 1 KCl, and 1.2 KH2PO4, with the pH adjusted to 7.2 with NaOH. 4.4 μM of the fluorescent indicator dye, Fluo-4 (Invitrogen), prepared in pluronic acid
(Sigma-Aldrich), was loaded into the wells and incubated for 45 minutes at 29° C. in 5% CO2. Cells were then rinsed with the following low Ca^2+ buffer (in mM): 0.34 Na2HPO4, 4.2 NaHCO3, 0.44 KH2PO4, 0.41 MgSO4, 0.49 MgCl2-6H2O, 20 HEPES, 5.5 D-Glucose, 137 NaCl, 5.3 KCl, and 0.001 CaCl2, with 0.1% BSA and the pH adjusted to 7.2 with NaOH. Concentration-dependent response curves were generated from 5 mM stock solutions prepared in DMSO (Sigma-Aldrich) and diluted in the buffer containing low Ca^2+ and incubated for 20 minutes at 29° C. in 5% CO2. Calcium entry was evoked with an addition of (in mM): 0.34 Na2HPO4, 4.2 NaHCO3, 0.44 KH2PO4, 0.41 MgSO4, 0.49 MgCl2-6H2O, 20 HEPES, 5.5 D-Glucose, 137 NaCl, 5.3 KCl, and 6 CaCl2, with 0.1% BSA and the pH adjusted to 7.2 with NaOH. A change in the Fluo-4 fluorescence signal was assessed using FLIPR^TETRA™ instrument (Molecular Devices, Sunnyvale, Calif.) for 3 minutes following the elevation of extracellular KCl using an illumination wavelength of 470-495 nm with emissions recorded at 515-575 nm.
as §1, §2, §3

Another test has as its target T3, CaV2.2 (Homo sapiens, UniProt Q00975).
T3 construct: expressed in transfected cells; host or cells: unnamed doxycycline-inducible cell line
The experiment in a line: High-throughput CaV2.2/Kir2.3 FLIPR fluorescent assay. The conditions noted are these: Fluo-4 FLIPR, closed or inactivated state not stated, read-out: FLIPR data CaV2.2. In outline:
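IC50 was derived by logistic fitting of the FLIPR Fluo-4 signal recorded over 3 min after a 130 mM KCl stimulus. Before stimulation, cells (channel expression induced with doxycycline, 29 °C on assay day) were kept in pH 7.4 buffer with 2 mM KCl for the closed-state format or 12.5 mM KCl for the inactivated-state format.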

T3 sequence (Q00975 whole entry): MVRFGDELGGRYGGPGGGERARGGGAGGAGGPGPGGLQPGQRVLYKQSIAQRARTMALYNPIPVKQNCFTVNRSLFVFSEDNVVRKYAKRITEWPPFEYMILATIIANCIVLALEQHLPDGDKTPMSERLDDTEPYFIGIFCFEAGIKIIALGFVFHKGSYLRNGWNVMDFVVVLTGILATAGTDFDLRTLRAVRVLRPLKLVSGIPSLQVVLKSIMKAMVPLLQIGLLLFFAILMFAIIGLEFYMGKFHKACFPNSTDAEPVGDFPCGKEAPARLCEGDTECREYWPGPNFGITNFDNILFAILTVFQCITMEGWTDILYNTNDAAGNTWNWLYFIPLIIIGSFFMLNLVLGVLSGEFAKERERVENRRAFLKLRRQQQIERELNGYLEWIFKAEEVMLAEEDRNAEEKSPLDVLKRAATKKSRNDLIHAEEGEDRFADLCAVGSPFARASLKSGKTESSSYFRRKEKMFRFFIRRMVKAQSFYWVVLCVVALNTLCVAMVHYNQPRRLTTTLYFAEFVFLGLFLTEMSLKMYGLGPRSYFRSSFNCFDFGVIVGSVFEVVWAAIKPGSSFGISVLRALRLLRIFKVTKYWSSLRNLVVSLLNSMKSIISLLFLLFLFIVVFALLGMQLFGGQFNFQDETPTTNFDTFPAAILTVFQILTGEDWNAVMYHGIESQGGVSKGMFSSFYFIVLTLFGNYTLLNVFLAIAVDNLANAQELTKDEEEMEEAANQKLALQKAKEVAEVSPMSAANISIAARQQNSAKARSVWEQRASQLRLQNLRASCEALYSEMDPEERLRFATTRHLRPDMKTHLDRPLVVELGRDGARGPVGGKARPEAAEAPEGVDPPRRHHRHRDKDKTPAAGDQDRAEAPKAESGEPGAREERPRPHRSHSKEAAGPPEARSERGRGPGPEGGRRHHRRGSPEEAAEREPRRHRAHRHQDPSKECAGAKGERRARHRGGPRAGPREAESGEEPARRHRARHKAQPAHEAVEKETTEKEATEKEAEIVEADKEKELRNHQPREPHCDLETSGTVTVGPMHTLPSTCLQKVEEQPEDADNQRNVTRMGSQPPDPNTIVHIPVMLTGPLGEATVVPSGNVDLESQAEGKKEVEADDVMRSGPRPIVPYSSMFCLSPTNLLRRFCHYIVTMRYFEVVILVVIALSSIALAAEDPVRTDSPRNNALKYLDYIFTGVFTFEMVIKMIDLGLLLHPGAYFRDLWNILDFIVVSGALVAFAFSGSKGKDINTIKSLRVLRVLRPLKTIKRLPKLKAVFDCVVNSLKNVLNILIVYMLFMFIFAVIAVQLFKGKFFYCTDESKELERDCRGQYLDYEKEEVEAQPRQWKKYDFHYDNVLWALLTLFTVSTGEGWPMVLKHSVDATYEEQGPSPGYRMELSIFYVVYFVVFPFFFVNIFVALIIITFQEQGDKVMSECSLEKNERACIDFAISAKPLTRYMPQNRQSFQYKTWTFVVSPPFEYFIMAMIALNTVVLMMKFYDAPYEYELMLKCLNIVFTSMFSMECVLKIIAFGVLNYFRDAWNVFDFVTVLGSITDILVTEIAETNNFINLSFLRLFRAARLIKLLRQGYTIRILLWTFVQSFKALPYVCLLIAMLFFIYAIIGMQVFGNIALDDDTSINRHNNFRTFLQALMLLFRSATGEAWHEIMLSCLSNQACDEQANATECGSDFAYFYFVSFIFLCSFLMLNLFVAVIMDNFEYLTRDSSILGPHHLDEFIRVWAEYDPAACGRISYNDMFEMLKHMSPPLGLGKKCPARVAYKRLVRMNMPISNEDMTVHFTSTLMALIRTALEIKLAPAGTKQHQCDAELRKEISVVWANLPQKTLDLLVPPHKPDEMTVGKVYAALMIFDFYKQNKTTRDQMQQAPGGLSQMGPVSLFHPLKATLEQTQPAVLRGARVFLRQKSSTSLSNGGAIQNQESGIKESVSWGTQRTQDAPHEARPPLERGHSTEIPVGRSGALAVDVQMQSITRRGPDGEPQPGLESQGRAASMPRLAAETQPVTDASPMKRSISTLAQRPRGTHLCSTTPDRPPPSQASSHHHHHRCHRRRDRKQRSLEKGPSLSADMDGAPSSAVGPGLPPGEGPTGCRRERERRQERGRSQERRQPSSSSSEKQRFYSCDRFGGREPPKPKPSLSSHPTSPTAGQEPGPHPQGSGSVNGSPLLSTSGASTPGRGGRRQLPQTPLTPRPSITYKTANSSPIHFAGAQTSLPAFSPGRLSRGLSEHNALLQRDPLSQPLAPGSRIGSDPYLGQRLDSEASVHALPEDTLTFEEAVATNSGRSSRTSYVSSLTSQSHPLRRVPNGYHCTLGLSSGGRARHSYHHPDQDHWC
T3 sequence (P54284 whole entry partner): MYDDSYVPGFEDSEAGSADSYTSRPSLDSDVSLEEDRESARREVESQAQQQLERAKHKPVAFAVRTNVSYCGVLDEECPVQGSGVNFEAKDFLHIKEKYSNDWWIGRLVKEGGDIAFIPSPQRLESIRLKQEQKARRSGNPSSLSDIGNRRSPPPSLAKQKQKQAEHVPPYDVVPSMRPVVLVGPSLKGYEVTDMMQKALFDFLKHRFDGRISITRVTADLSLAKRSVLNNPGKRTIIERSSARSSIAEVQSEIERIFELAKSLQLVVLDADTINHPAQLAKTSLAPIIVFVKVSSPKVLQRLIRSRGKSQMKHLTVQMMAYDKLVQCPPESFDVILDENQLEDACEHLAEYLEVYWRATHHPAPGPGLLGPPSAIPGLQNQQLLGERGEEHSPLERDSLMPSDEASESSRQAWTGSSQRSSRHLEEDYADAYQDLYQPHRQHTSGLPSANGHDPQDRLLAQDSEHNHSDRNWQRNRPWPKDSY
T3 sequence (P54289 25-946 partner limits assumed): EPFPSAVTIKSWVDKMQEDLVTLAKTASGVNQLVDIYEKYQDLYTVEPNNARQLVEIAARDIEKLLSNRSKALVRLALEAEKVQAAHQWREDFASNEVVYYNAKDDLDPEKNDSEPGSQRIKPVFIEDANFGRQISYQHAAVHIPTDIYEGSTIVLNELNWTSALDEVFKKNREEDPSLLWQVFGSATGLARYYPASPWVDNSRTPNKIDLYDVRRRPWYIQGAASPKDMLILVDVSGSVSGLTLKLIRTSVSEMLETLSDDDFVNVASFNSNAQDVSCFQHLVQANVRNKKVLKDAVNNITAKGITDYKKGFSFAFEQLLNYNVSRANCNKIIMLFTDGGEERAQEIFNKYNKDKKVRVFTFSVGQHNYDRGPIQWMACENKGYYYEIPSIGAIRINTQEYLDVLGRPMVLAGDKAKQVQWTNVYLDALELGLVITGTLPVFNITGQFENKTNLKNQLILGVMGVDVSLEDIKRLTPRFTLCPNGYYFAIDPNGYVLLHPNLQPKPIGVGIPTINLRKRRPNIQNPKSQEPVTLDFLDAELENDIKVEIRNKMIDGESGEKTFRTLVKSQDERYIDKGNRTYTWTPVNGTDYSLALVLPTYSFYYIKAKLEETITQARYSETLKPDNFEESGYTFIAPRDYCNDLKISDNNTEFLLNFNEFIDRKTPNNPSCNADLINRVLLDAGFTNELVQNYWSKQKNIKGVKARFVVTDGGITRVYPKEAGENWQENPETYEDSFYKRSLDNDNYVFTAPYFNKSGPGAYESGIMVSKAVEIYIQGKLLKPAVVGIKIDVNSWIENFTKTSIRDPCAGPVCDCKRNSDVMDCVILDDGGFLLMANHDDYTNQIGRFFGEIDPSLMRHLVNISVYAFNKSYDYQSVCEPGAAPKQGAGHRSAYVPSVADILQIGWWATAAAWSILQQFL
T3 sequence (P54289 947-1103 partner limits assumed): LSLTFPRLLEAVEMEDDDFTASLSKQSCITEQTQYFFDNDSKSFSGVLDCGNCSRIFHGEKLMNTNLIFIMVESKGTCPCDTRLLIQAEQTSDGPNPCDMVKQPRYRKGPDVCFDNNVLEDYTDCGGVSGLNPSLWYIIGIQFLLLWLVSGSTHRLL

With `CC(C)(C(=O)NCc1cccc(C(F)(F)F)c1)S(=O)(=O)c1cccc(C(F)(F)F)c1` [Compound 124, 2-methyl-N-(3-(trifluoromethyl)benzyl)-2-((3-(trifluoromethyl)phenyl)sulfonyl)propanamide], the figures for the IC50 against CaV3.2 (Table 5), against CaV3.1 (Table 5) and at CaV2.2 (Table 5) were 5620 nM, 4250 nM and 750 nM, respectively.

For `O=C(NCc1ccc(S(=O)(=O)c2cccc(C(F)(F)F)c2)cn1)c1ccc(C(F)(F)F)cn1` [Compound 91, 5-(trifluoromethyl)-N-((5-((3-(trifluoromethyl)phenyl)sulfonyl)pyridin-2-yl)methyl)picolinamide], the IC50 against CaV3.2 (Table 4) stood at 1290 nM; against CaV3.1 (Table 4) it was 1850 nM; at CaV2.2 (Table 4), 840 nM.

As for `O=C(NCc1ccc(S(=O)(=O)c2cccc(C(F)(F)F)c2)cc1)c1ccc(Cl)c(OC(F)(F)F)c1` [Compound 15, 4-chloro-3-(trifluoromethoxy)-N-(4-((3-(trifluoromethyl)phenyl)sulfonyl)benzyl)benzamide], the results for the IC50 against CaV3.2 (Table 4), against CaV3.1 (Table 4) and on CaV2.2 (Table 4) were 490 nM, 1390 nM and 740 nM, respectively.

Turning to `CC(C)(CCNC(=O)[C@@H]1C[C@@H](C2CCCCC2)CN1)S(=O)(=O)c1cccc(C(F)(F)F)c1` [Compound 218, (2S,4S)-4-cyclohexyl-N-(3-methyl-3-((3-(trifluoromethyl)phenyl)sulfonyl)butyl)pyrrolidine-2-carboxamide], the IC50 at CaV3.2 (Table 5) stood at 3210 nM; at CaV3.1 (Table 5), 5640 nM; at CaV2.2 (Table 5), 740 nM.

In the case of `O=C(NCc1ccccc1S(=O)(=O)c1cccc(C(F)(F)F)c1)[C@@H]1C[C@@H](C2CCCCC2)CN1` [Compound 75, (2S,4S)-4-cyclohexyl-N-(2-((3-(trifluoromethyl)phenyl)sulfonyl)benzyl)pyrrolidine-2-carboxamide], the results for the IC50 against CaV3.2 (Table 4), against CaV3.1 (Table 4) and on CaV2.2 (Table 4) were 1590 nM, 5470 nM and 1060 nM, respectively.

Regarding `Cn1nc(C(F)(F)F)cc1C(=O)NCc1cc(S(=O)(=O)c2cccc(C(F)(F)F)c2)ccn1` [Compound 109, 1-methyl-3-(trifluoromethyl)-N-((4-((3-(trifluoromethyl)phenyl)sulfonyl)pyridin-2-yl)methyl)-1H-pyrazole-5-carboxamide], the IC50 stood at 3970 nM against CaV3.2 (Table 4), 6530 nM at CaV3.1 (Table 4) and 820 nM on CaV2.2 (Table 4).

For `Cn1nc(C(F)(F)F)cc1C(=O)NCc1ccc(S(=O)(=O)c2cccc(C(F)(F)F)c2)cc1` [Compound 7, 1-methyl-3-(trifluoromethyl)-N-(4-((3-(trifluoromethyl)phenyl)sulfonyl)benzyl)-1H-pyrazole-5-carboxamide], the figures for the IC50 on CaV3.2 (Table 4), against CaV3.1 (Table 4) and at CaV2.2 (Table 4) were 510 nM, 1330 nM and 390 nM, respectively.

Turning to `O=C(NCc1ccc(S(=O)(=O)c2cccc(C(F)(F)F)c2)cn1)c1cc(F)cc(Cl)c1` [Compound 89, 3-chloro-5-fluoro-N-((5-((3-(trifluoromethyl)phenyl)sulfonyl)pyridin-2-yl)methyl)benzamide], the IC50 against CaV3.2 (Table 4) stood at 1740 nM; at CaV3.1 (Table 4), 1580 nM; on CaV2.2 (Table 4) it was 970 nM.

Consider `CC(C)S(=O)(=O)c1cc(C(F)(F)F)cnc1C(=O)NCc1ccccc1S(=O)(=O)c1cccc(C(F)(F)F)c1` [Compound 44, 3-(isopropylsulfonyl)-5-(trifluoromethyl)-N-(2-((3-(trifluoromethyl)phenyl)sulfonyl)benzyl)picolinamide], for which the values for the IC50 against CaV3.2 (Table 4), on CaV3.1 (Table 4) and at CaV2.2 (Table 4) were 1030 nM, 720 nM and 230 nM, respectively.

On to `O=C1c2cc(C(F)(F)F)nn2CCN1Cc1cccc(S(=O)(=O)c2cccc(C(F)(F)F)c2)c1` [Compound 34, 2-(trifluoromethyl)-5-(3-((3-(trifluoromethyl)phenyl)sulfonyl)benzyl)-6,7-dihydropyrazolo[1,5-a]pyrazin-4(5H)-one], for which the IC50 against CaV3.2 (Table 4) stood at 970 nM; at CaV3.1 (Table 4), 1630 nM; at CaV2.2 (Table 4), 590 nM.

Turning to `CS(=O)(=O)c1cc(C(F)(F)F)cnc1C(=O)NCc1cccc(S(=O)(=O)c2cccc(C(F)(F)F)c2)c1` [Compound 24, 3-(methylsulfonyl)-5-(trifluoromethyl)-N-(3-((3-(trifluoromethyl)phenyl)sulfonyl)benzyl)picolinamide], the IC50 was determined as 550 nM against CaV3.2 (Table 4), 3240 nM against CaV3.1 (Table 4) and 410 nM on CaV2.2 (Table 4).

With `CC(C)(C(=O)NCc1ccc(S(=O)(=O)c2cccc(C(F)(F)F)c2)cn1)S(=O)(=O)c1cccc(C(F)(F)F)c1` [Compound 87, 2-methyl-2-((3-(trifluoromethyl)phenyl)sulfonyl)-N-((5-((3-(trifluoromethyl)phenyl)sulfonyl)pyridin-2-yl)methyl)propanamide], the values for the IC50 against CaV3.2 (Table 4), at CaV3.1 (Table 4) and at CaV2.2 (Table 4) were 1260 nM, 1690 nM and 170 nM, respectively.

Turning to `COc1cc(C(=O)NCc2cccc(S(=O)(=O)c3cccc(C(F)(F)F)c3)c2)cc(Cl)n1` [Compound 30], the results for the IC50 against CaV3.2 (Table 4), against CaV3.1 (Table 4) and on CaV2.2 (Table 4) were 510 nM, 1110 nM and 310 nM, respectively.

In the case of `COc1cc(C(=O)NCc2ccc(S(=O)(=O)c3cccc(C(F)(F)F)c3)cc2)cc(Cl)n1` [Compound 14, 2-chloro-6-methoxy-N-(4-((3-(trifluoromethyl)phenyl)sulfonyl)benzyl)isonicotinamide], the results for the IC50 against CaV3.2 (Table 4), against CaV3.1 (Table 4) and on CaV2.2 (Table 4) were 430 nM, 2380 nM and 850 nM, respectively.

As for `N[C@@H](C(=O)NCc1ccc(S(=O)(=O)c2cccc(C(F)(F)F)c2)cc1)c1ccccc1` [Compound 63, (R)-2-amino-2-phenyl-N-(4-((3-(trifluoromethyl)phenyl)sulfonyl)benzyl)acetamide], the IC50 was 580 nM against CaV3.1 (Table 4) and 440 nM at CaV2.2 (Table 4).

Regarding `CC(C)(C(=O)Nc1ccc(Oc2ccc(C(F)(F)F)cn2)nc1)S(=O)(=O)c1cccc(C(F)(F)F)c1` [Compound 120, 2-methyl-2-((3-(trifluoromethyl)phenyl)sulfonyl)-N-(6-((5-(trifluoromethyl)pyridin-2-yl)oxy)pyridin-3-yl)propanamide], the IC50 at CaV3.1 (Table 5) came out at 5690 nM; at CaV2.2 (Table 5), 1020 nM.
